{
  "source": "ChEMBL document CHEMBL5120941",
  "about": "(ACS Med Chem Lett, 2022)",
  "key": {"[1]": {"system": "Staphylococcus aureus", "experiment": "Antibacterial activity against Staphylococcus aureus ATCC 19636 infected Sprague-Dawley rat peritonitis model assessed as increase in animal's survival rate administered iv at 1 hr post-infection and measured after 48 hrs", "assay_type": "functional"}, "[2]": {"system": "Staphylococcus aureus", "experiment": "Antibacterial activity against Staphylococcus aureus ATCC 19636 infected ICR mouse septicemia model assessed as increase in animal's survival rate administered iv at 1 hr post-infection and measured after 48 hrs", "assay_type": "functional"}, "[3]": {"experiment": "AUC (0 to 24 hrs) in Sprague-Dawley rat at 10 mg/kg, iv by HLPC-MS/MS analysis", "assay_type": "ADME, organism-based", "parameters": "time < 24 hr, dose 10 mg/kg, route iv", "conditions": "in vivo"}, "[4]": {"experiment": "Aqueous solubility of the compound in deionized water at 25 degC", "assay_type": "physicochemical"}},
  "data": [
    {"smiles": "O=C1C=CN(c2c(F)cc(N3C[C@H](CNc4ccon4)OC3=O)c(F)c2F)CC1", "note": "[CONTEZOLID]", "values": [
      {"measurement": "ED50", "setting": "[1]", "value": 10.3, "unit": "mg/kg"},
      {"measurement": "ED50", "setting": "[2]", "value": 4.7, "unit": "mg/kg"},
      {"measurement": "AUC(0-t) at 24 h", "setting": "[3]", "value": 25400, "unit": "ng·h/mL"},
      {"measurement": "solubility", "setting": "[4]", "value": 200, "unit": "µg/mL"}
    ]}
  ]
}
